Measurements from patent US20240109853A1 (Shanghai Yao Yuan Biotechnology Co., Ltd., priority 2020, published 2024).

Legend:
[1] = target: ALPK1 (Homo sapiens (Human), UniProt Q96QP1); experiment: ALPK1 in vitro kinase assay (HTRF of TIFA phosphorylation); assay type: biochemical
[2] = system: ALPK1-dependent NFκB reporter gene activation in HEK293 cells stably expressing an NF-kB reporter (G9 cells); experiment: NFκB gene reporter alkaline phosphatase assay; assay type: cell-based; conditions: Homo sapiens, HEK293; read-out: NFkB assay IC50
Method in brief: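 Compounds, serially diluted, were added to attached HEK293-derived G9 reporter cells for 30 min prior to stimulation with the fluoro-heptose ADP agonist. Secreted alkaline phosphatase was quantified colorimetrically using pNPP.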

ALPK1, sequence (Q96QP1 whole entry): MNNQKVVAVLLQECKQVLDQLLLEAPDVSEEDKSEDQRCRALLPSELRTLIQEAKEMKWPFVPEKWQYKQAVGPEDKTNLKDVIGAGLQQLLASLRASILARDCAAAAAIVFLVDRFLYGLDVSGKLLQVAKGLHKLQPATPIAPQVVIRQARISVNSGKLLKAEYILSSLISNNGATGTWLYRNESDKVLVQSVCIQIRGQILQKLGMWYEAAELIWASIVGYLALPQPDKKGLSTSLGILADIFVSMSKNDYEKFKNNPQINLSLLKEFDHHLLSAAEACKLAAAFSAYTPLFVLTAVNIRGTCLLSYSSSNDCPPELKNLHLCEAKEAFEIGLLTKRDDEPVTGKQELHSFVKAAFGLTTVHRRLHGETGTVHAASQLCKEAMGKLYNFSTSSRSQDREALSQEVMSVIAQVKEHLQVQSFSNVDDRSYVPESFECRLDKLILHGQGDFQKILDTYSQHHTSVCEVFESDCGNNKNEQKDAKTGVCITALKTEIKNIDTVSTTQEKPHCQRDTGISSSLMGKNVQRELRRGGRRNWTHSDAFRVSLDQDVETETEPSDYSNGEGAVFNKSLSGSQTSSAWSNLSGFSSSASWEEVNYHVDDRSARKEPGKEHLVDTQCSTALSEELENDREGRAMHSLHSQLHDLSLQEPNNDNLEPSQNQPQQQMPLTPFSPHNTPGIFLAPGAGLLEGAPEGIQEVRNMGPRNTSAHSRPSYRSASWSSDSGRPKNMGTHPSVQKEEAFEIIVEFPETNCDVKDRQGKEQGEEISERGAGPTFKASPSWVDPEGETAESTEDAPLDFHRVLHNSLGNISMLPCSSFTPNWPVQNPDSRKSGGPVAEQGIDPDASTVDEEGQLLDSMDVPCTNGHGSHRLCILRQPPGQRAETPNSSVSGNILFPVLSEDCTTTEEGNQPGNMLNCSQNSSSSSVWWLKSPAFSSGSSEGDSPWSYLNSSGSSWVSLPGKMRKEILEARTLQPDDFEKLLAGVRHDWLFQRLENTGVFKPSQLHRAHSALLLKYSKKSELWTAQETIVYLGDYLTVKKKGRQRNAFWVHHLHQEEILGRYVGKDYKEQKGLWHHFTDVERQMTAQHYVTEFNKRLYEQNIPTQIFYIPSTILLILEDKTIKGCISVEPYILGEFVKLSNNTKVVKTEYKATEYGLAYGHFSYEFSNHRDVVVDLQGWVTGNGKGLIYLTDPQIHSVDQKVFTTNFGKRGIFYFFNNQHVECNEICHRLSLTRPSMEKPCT

| SMILES | IC50 [1] [nM] | IC50 [2] [nM] |
| --- | --- | --- |
| CC(C)(c1ccc(Br)cc1)c1csc(NC(=O)NCc2cnc(N3CCCNCC3)nc2)n1 [Example A091, 1-((2-(1,4-diazepan-1-yl)pyrimidin-5-yl)methyl)-3-(4-(2-(4-bromophenyl)propan-2-yl)thiazol-2-yl)urea] | 135 | 3450 |
| CC(C)(c1ccc(Br)cc1)c1csc(NC(=O)NCc2ccc(N3CCNCC3)nc2)n1 [Example A092, 1-(4-(2-(4-bromophenyl)propan-2-yl)thiazol-2-yl)-3-((6-(piperazin-1-yl)pyridin-3-yl)methyl)urea] | 20 | 570 |
| CC(C)(c1ccc(Br)cc1)c1csc(NC(=O)NCc2cnc(N3CCNCC3)cn2)n1 [Example A093, 1-(4-(2-(4-bromophenyl)propan-2-yl)thiazol-2-yl)-3-((5-(piperazin-1-yl)pyrazin-2-yl)methyl)urea] | 9 | 320 |
| CC(C)(c1ccc(Br)cc1)c1csc(NC(=O)NCc2cc(N3CCNCC3)ncn2)n1 [Example A094, 1-(4-(2-(4-bromophenyl)propan-2-yl)thiazol-2-yl)-3-((6-(piperazin-1-yl)pyrimidin-4-yl)methyl)urea] | 73 | 1290 |
| Cc1cc(CNC(=O)Nc2nc(C(C)(C)c3ccc(Br)cc3)cs2)ccc1N1CCNCC1 [Example A096, 1-(4-(2-(4-bromophenyl)propan-2-yl)thiazol-2-yl)-3-(3-methyl-4-(piperazin-1-yl)benzyl)urea] | 69 | 1430 |
| CC(C)(c1ccc(Br)cc1)c1csc(NC(=O)NCc2ccc(N3CCNCC3)c(N)c2)n1 [Example A098, 1-(3-amino-4-(piperazin-1-yl)benzyl)-3-(4-(2-(4-bromophenyl)propan-2-yl)thiazol-2-yl)urea] | 31 | 1070 |
| CC(C)(c1ccc(Br)cc1)c1csc(NC(=O)NCc2cnc(N3CCC(N)CC3)nc2)n1 [Example A099, 1-((2-(4-aminopiperidin-1-yl)pyrimidin-5-yl)methyl)-3-(4-(2-(4-bromophenyl)propan-2-yl)thiazol-2-yl)urea] | 13 | 450 |
| CN1CCC(NC(=O)C2CCC(CNC(=O)Nc3nc(C(C)(C)c4ccc(Br)cc4)cs3)CC2)CC1 (centres unmarked) [Example A100, 4-((3-(4-(2-(4-bromophenyl)propan-2-yl)thiazol-2-yl)ureido)methyl)-N-(1-methylpiperidin-4-yl)cyclohexane-1-carboxamide] | 72 | 1370 |
| CC(C)(c1ccc(Br)cc1)c1csc(NC(=O)NC(CO)c2ccc(N3CCNCC3)cc2)n1 (centres unmarked) [Example A101, 1-(4-(2-(4-bromophenyl)propan-2-yl)thiazol-2-yl)-3-(2-hydroxy-1-(4-(piperazin-1-yl)phenyl)ethyl)urea] | 50 | 1650 |
| CC(C)(c1ccc(Br)cc1)c1csc(NC(=O)NCCCN2CCNCC2)n1 [Example A102, 1-(4-(2-(4-bromophenyl)propan-2-yl)thiazol-2-yl)-3-(3-(piperazin-1-yl)propyl)urea] | 90 | 710 |
| CC(C)(c1ccc(Br)cc1)c1csc(NC(=O)NCc2cnc(N3CCN(CCO)CC3)nc2)n1 [Example A103, 1-(4-(2-(4-bromophenyl)propan-2-yl)thiazol-2-yl)-3-((2-(4-(2-hydroxyethyl)piperazin-1-yl)pyrimidin-5-yl)methyl)urea] | 97 | 6200 |
| COc1ccc(C(C)(C)c2csc(NC(=O)NCc3cncnc3)n2)cc1 [Example A104, 1-(4-(2-(4-methoxyphenyl)propan-2-yl)thiazol-2-yl)-3-(pyrimidin-5-ylmethyl)urea] | 223 | 1690 |
| COc1ccc(C(C)(C)c2csc(NC(=O)NCc3cnc(NCCO)c(F)c3)n2)cc1 [Example A105, 1-((5-fluoro-6-((2-hydroxyethyl)amino)pyri-din-3-yl)methyl)-3-(4-(2-(4-methoxyphenyl)propan-2-yl)thiazol-2-yl)urea] | 144 | 1020 |
| CN(C)C1CCN(c2ccc(CNC(=O)Nc3nc(C(C)(C)c4ccc(Br)cc4)cs3)cn2)C1 (centres unmarked) [Example A106, 1-(4-(2-(4-bromophenyl)propan-2-yl)thiazol-2-yl)-3-((6-(3-(dimethylamino)pyrrolidin-1-yl)pyridin-3-yl)methyl)urea] | 48 | 6720 |
| CC(C)(c1ccc(Br)cc1)c1csc(NC(=O)NCc2ccc(NCCO)cc2)n1 [Example A108, 1-(4-(2-(4-bromophenyl)propan-2-yl)thiazol-2-yl)-3-(4-((2-hydroxyethyl)amino)ben-zyl)urea] | 244 | 820 |
| COCCNC(=O)Nc1nc(C(C)(C)c2ccc(OC)cc2)cs1 [Example A110, 1-(2-methoxyethyl)-3-(4-(2-(4-methoxyphenyl)propan-2-yl)thiazol-2-yl)urea] | 193 | 940 |
| COCCCNC(=O)Nc1nc(C(C)(C)c2ccc(OC)cc2)cs1 [Example A111, 1-(4-(2-(4-methoxyphenyl)propan-2-yl)thiazol-2-yl)-3-(3-methoxypropyl)urea] | 127 | 1240 |

| SMILES | IC50 [1] [nM] | IC50 [2] [nM] |
| --- | --- | --- |
| CCCN1CCC(NC(=O)c2ccc(CNC(=O)Nc3nc(C(C)(C)c4ccc(OC)cc4)cs3)cn2)CC1 [Example A115, 5-((3-(4-(2-(4-methoxyphenyl)propan-2-yl)thiazol-2-yl)ureido)methyl)-N-(1-propylpiperidin-4-yl)picolinamide] | 19 | 830 |
| CCCN1CCN(c2ccc(CNC(=O)Nc3nc(C(C)(C)c4ccc(OC)cc4)cs3)cc2C(N)=O)CC1 [Example A116, 5-((3-(4-(2-(4-methoxyphenyl)propan-2-yl)thiazol-2-yl)ureido)methyl)-2-(4-propylpiperazin-1-yl)benzamide] | 72 | 720 |
| CN1CCN(Cc2c(F)cc(CNC(=O)Nc3nc(C(C)(C)c4ccc(Br)cc4)cs3)cc2F)CC1 [Example A117, 1-(4-(2-(4-bromophenyl)propan-2-yl)thiazol-2-yl)-3-(3,5-difluoro-4-((4-methylpiperazin-1-yl)methyl)benzyl)urea] | 67 | 5030 |
| CC(NC(=O)Nc1nc(C(C)(C)c2ccc(Br)cc2)cs1)c1ccc(CN2CCN(C)CC2)cc1 (centres unmarked) [Example A118, 1-(4-(2-(4-bromophenyl)propan-2-yl)thiazol-2-yl)-3-(1-(4-((4-methylpiperazin-1-yl)methyl)phenyl)ethyl) urea] | 227 | 4380 |
| CC(C)(c1ccc(Br)cc1)c1csc(NC(=O)NCc2cnc(NCCO)nc2)n1 [Example A119, 1-(4-(2-(4-bromophenyl)propan-2-yl)thiazol-2-yl)-3-((2-((2-hydroxyethyl)amino)pyri-midin-5-yl)methyl)urea] | 36 | 4430 |
| COc1ccc(C(C)(C)c2csc(NC(=O)NCc3ccc(C(=O)NC4CCN(C)CC4)nc3)n2)cc1 [Example A120, 5-((3-(4-(2-(4-methoxyphenyl)propan-2-yl)thiazol-2-yl)ureido)methyl)-N-(1-methylpiperidin-4-yl)picolinamide] | 53 | 990 |
| COc1ccc(C(C)(C)c2csc(NC(=O)NCc3cnc(N4CCNC(=O)C4)c(F)c3)n2)cc1 [Example A121, 1-((5-fluoro-6-(3-oxopiperaizn-1-yl)pyridin-3-yl)methyl)-3-(4-(2-(4-methoxyphenyl)propan-2-yl)thiazol-2-yl)urea] | 209 | 2020 |
| COc1ccc(C(C)(C)c2csc(NC(=O)NC3CCC(O)CC3)n2)cc1 (centres unmarked) [Example A122, 1-(4-hydroxycyclohexyl)-3-(4-(2-(4-methoxyphenyl)propan-2-yl)thiazol-2-yl)urea] | 219 | 1700 |
| COc1ccc(C(C)(C)c2csc(NC(=O)NC3CCCC(O)C3)n2)cc1 (centres unmarked) [Example A123, 1-(3-hydroxycyclohexyl)-3-(4-(2-(4-methoxyphenyl)propan-2-yl)thiazol-2-yl)urea] | 354 | 2400 |
| COc1ccc(C(C)(C)c2csc(NC(=O)NCCc3ccncc3)n2)cc1 [Example A124, 1-(4-(2-(4-methoxyphenyl)propan-2-yl)thiazol-2-yl)-3-(2-(pyridin-4-yl)ethyl)urea] | 165 | 1050 |
| CC(C)NC(=O)Nc1nc(C(C)(C)c2ccc(Br)cc2)cs1 [Example A125, 1-(4-(2-(4-bromophenyl)propan-2-yl)thiazol-2-yl)-3-isopropylurea] | 28 | 2800 |
| CC(C)(c1ccc(Br)cc1)c1csc(NC(=O)NCCCO)n1 [Example A126, 1-(4-(2-(4-bromophenyl)propan-2-yl)thiazol-2-yl)-3-(3-hydroxypropyl)urea] | 88 | 2960 |
| CC(C)(c1ccc(Br)cc1)c1csc(NC(=O)NCCCN2CCOCC2)n1 [Example A127, 1-(4-(2-(4-bromophenyl)propan-2-yl)thiazol-2-yl)-3-(3-morpholinopropyl)urea] | 113 | 940 |
| COc1ccc(C(C)(C)c2csc(NC(=O)NCCCCO)n2)cc1 [Example A128, 1-(4-hydroxybutyl)-3-(4-(2-(4-methoxyphenyl)propan-2-yl)thiazol-2-yl)urea] | 146 | 530 |
| CC(C)(c1ccc(Br)cc1)c1csc(NC(=O)NCCCN2CCC(O)C2)n1 (centres unmarked) [Example A129, 1-(4-(2-(4-bromophenyl)propan-2-yl)thiazol-2-yl)-3-(3-(3-hydroxypyrrolidin-1-yl)propyl)urea] | 40 | 510 |
| CC(C)(c1ccc(Br)cc1)c1csc(NC(=O)NCCCS(C)(=O)=O)n1 [Example A130, 1-(4-(2-(4-bromophenyl)propan-2-yl)thiazol-2-yl)-3-(3-(methylsulfonyl)propyl) urea] | 293 | 1100 |
| CC(C)(c1ccc(Br)cc1)c1csc(NC(=O)NCCS(N)(=O)=O)n1 [Example A131, 2-(3-(4-(2-(4-bromophenyl)propan-2-yl)thiazol-2-yl)ureido)ethanesulfona-mide] | 219 | 940 |
